Patent publication US4360595A, “Fermentation process for producing anandimycin” (Bristol-Myers Company, priority 1981, dated 1982)

Experiments:
[1] = antimicrobial / antibiotic activity (in words); type: cell-based
[2] = solubility in organic solvents (trituration, chromatography); type: physicochemical
Source text: The solids obtained from extraction of the whole broth are next washed with diethyl ether to remove any lard oils and antifoams used in the fermentation. […] To remedy this problem a simple organic solvent trituration scheme was developed which effects a gross separation of the yellow pigments and another class of antitumor agents produced by strain C-22,437 (rachelmycin) from anandimycin on the basis of differential solubility. […] The first step involves trituration of the extraction solids with acetone. The resulting filtrate contains another antitumor substance which is active in the lysogenic bacteria induction assay and the P388 mouse tumor system (rachelmycin). The insoluble solid from the acetone trituration contains the yellow pigments along with a complex of anandimycin and another similar compound. The second phase of the process involves trituration with a ternary organic solvent system 40:30:30(^v/v) chloroform:methanol:tetrahydrofuran. The soluble fraction contains the yellow pigments. […] Substantially pure anandimycin is separated from the enriched mixture using high pressure liquid chromatography on silica gel as described in more detail below.
The analytical solvent system routinely used is hexane:ethyl acetate:isopropanol (30:70:3^v /v) along with 0.1 to 0.4 part water depending on the relative activity state of the silica gel surface in the column being used. If tailing effects are observed, then typically one increases the water content of the solvent system within the 0.1-0.4 part range to improve peak symmetry, thereby permitting a more quantitative analysis.
The preparative solvent system is ethyl acetate:isopropanol:water (87:13:0.5^v /v). […] A shave-recycle method involves increasing the effective silica gel column length through the employment of continuous multiple pass chromatography of the anandimycin-component II band. […] Initial chromatography gave anandimycin enriched to 70-85% purity. Accumulated solids are rechromatographed to yield material of >90% purity. […]

C=Cc1cc(OC)c2c(c1)c(=O)oc1c2cc(OC)c2c(O)ccc(C3OC(C(C)O)C(O)C3O)c21 (stereo not drawn) [Anandimycin]
antimicrobial / antibiotic activity [1]: exhibit antimicrobial activity | solubility in trituration solvents ([2]; acetone, 40:30:30 chloroform:methanol:tetrahydrofuran): insoluble | solubility in chromatography solvents ([2]; solvents for (preparative) chromatography): poor solubility
